In patent US5583142A, “Analgesic and nootropic drugs” (priority 1992, dated 1996):
Several values for one entry are separate records, joined by “and”; a condition that tells them apart may be missing. Identical values can stand only once. Like-named read-outs stand apart in the source and are kept apart here.

Tests used:
[1] = test system: presynaptic muscarinic autoreceptor; details: cited from earlier work
[2] = assay type: in vivo, mouse
Description: (§1) The analgesic action was detected in mouse, rat, guinea pig and dog. The mouse was subjected to hot plate and writhing tests; the rat to tail-flick and paw-pressure tests; the guinea pig to paw-pressure test only; the dog to the test described by Vainio et al. [J. Vet. Pharmacol. Ther., 12, 225-231 (1989)] using an electric stimulation. Consequently, the claimed compounds were tested with pain being induced by stimuli of different nature: thermal (hot plate and tail flick), chemical (writhing by acetic acid), mechanical (paw pressure) and electrical (cutaneous stimulation).
(§2) Potency, efficacy and toxicity of SM21, PG9 and SM32 in comparison with
(§3) four principal reference analgesic drugs tested in mouse. As analgesic

in vivo = details: mouse, sc
Description: as §2, §3

[3] = mouse rota-rod test (16 r.p.m.)
Description: All products tested to detect their antinociceptive activity had been previously tested by the rota-rod test to determine their maximum utilizable dose in analgesic tests. In fact, by this test it is possible to determine the highest dose of drug not impairing the normal performance of animals in a test that simultaneously evaluates motor coordination, equilibrium, resistance to fatigue, and muscle strength. This test is meant to evaluate the capability of mice to stay balanced on a rotating rod [cf. Vaught et al., Neuropharmacology, 24 (3) 211-216 (1985)].
The calculated doses were those used in the two analgesic tests on mice.

[4] = mouse acetic acid writhing test; assay type: in vivo
Description: as §1
The claimed molecules, chosen as examples, were also assayed in mice by the writhing test (Table 4). The test is meant to evaluate the products capability to prevent mice writhes ensuing abdominal pains caused by i.p. injection of a 0.6% aqueous solution of acetic acid.
Acetic acid solution = 0.6% v/v.

rat paw-pressure test = assay type: in vivo; details: for paw-pressure: 20 mg/kg i.p.
Description: as §1
(§4) As already mentioned, the claimed products were assayed also in rat by the paw-pressure and tail-flick tests.
(§5) Both tests were carried out with the max. doses not impairing the rats normal behaviour. […] The painful stimulus utilized in the paw-pressure test involved the animal consciousness to a much greater extent than the stimulus used in the tail-flick test, in fact, the type and anatomic localization of the latter mainly involved a spinal response.
(§6) Both tests on rats were carried out with the max. doses not altering the behaviour of the treated animals.

rat tail-flick test = assay type: in vivo; details: for tail-flick: 20 mg/kg i.p.
Description: as §1, §4, §5, §6
The test was performed using th

## Cc1cccc(C)c1OCC(C)N (centres unmarked) [mexyletine]
[1]
  selectivity and efficacy as antagonists of the presynaptic muscarinic autoreceptor: little selective as well as little efficacious

## CCC(Sc1ccccc1)C(=O)O[C@H]1C[C@H]2CC[C@@H](C1)N2C (stereo partly drawn) [SM-32, 3α-Tropanyl 2-(phenylthio)-butyrate]
[2]; max. dose not affecting mice behaviour
  ANALGESIC ACTIVITY (degree of analgesia, latency on hot plate): ++++ (Latency above 35" ++++-)
[2]; mouse hot plate, FIG. 5, s.c.
  analgesic effect (AUC up to 45 min) compared with reference compounds: more active than the reference compounds
[2]; mouse, in vivo
  Efficacy as analgesic (Morphine = 100), AUC (Area Under Curve): 120
  Efficacy as analgesic (Morphine = 100), M.E. (Maximum Analgesic Effect): 107
[2]; mouse, in vivo, ip
  analgesic effect (AUC up to 45 min) compared with morphine: only slightly less active than morphine
[2]; mouse, 35 mg/kg i.p., 15 min after treatment
  hot-plate latency: 35.5 ± 3.0 s
[2]; mouse, 35 mg/kg i.p., 30 min after treatment
  hot-plate latency: 33.5 ± 2.6 s
[2]; mouse, 35 mg/kg i.p., 45 min after treatment
  hot-plate latency: 24.4 ± 1.9 s
[2]; mouse, 35 mg/kg s.c., 15 min after treatment
  hot-plate latency: 38.7 ± 3.5 s
[2]; mouse, 35 mg/kg s.c., 30 min after treatment
  hot-plate latency: 36.4 ± 3.2 s
[2]; mouse, 35 mg/kg s.c., 45 min after treatment
  hot-plate latency: 25.7 ± 2.9 s
In vivo
  LD50: 584 µmol/kg
[3]; 40 mg/kg s.c., 15 min after treatment
  rota-rod performance (number of falls in 30 s): 1.2 ± 0.6 falls in 30 s
[3]; 40 mg/kg s.c., 30 min after treatment
  rota-rod performance (number of falls in 30 s): 1.4 ± 0.3 falls in 30 s
[3]; 40 mg/kg s.c., 45 min after treatment
  rota-rod performance (number of falls in 30 s): 1.2 ± 0.4 falls in 30 s
[3]; 45 mg/kg s.c., 15 min after treatment
  rota-rod performance (number of falls in 30 s): 2.0 ± 0.3 falls in 30 s
[3]; 45 mg/kg s.c., 30 min after treatment
  rota-rod performance (number of falls in 30 s): 2.3 ± 0.3 falls in 30 s
[3]; 45 mg/kg s.c., 45 min after treatment
  rota-rod performance (number of falls in 30 s): 2.0 ± 0.5 falls in 30 s
[3]; 50 mg/kg s.c., 15 min after treatment
  rota-rod performance (number of falls in 30 s): 1.8 ± 0.4 falls in 30 s
[3]; 50 mg/kg s.c., 30 min after treatment
  rota-rod performance (number of falls in 30 s): 2.6 ± 0.6 falls in 30 s
[3]; 50 mg/kg s.c., 45 min after treatment
  rota-rod performance (number of falls in 30 s): 2.6 ± 0.5 falls in 30 s
[4]; mouse
  efficacy in writhing test, in words: less efficacious than ketorolac, are more efficacious than morphine
[4]; mouse, 35 mg/kg s.c.
  number of writhes: 5.5 ± 2.1
[4]; mouse, writhing, 35 mg/kg s.c.
  Efficacy as analgesic (Morphine = 100): 111
  percent inhibition: 83.4%
[4]; sc, mouse writhing
  ED50: 15.9 mg/kg and 35.7 µmol/kg
Rat paw-pressure test
  activity in paw-pressure test, in words: almost equivalent analgesia
Rat paw-pressure test; 15 min after treatment
  paw-pressure: 86.2 ± 4.0 g
Rat paw-pressure test; 30 min after treatment
  paw-pressure: 92.0 ± 6.1 g
Rat paw-pressure test; 45 min after treatment
  paw-pressure: 69.0 ± 4.8 g
Rat tail-flick test
  activity in tail-flick test, in words: active
Rat tail-flick test; 15 min after treatment
  tail-flick: 3.1 ± 0.5 s
Rat tail-flick test; 30 min after treatment
  tail-flick: 4.7 ± 0.6 s
Rat tail-flick test; 45 min after treatment
  tail-flick: 4.3 ± 0.5 s
